Data taken from PubChem BioAssay (NCI).
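Test compounds were applied to cells in 96-well plates for 48 hours at 5 doses. GI50 = concentration required for 50% inhibition of growth. Definition used: TGI = concentration required for complete inhibition of growth.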

Key:
Experiment in all cases: NCI tumour cell line growth inhibition, 48 h
KM12 colon = test system: KM12 colon
NCI-H522 lung = test system: NCI-H522 lung
RPMI-8226 leukemia = test system: RPMI-8226 leukemia
U251 CNS = test system: U251 CNS
RXF 393 renal = test system: RXF 393 renal
COLO 205 colon = test system: COLO 205 colon
IGROV1 ovarian = test system: IGROV1 ovarian
NCI-H460 lung = test system: NCI-H460 lung
HT29 colon = test system: HT29 colon
CAKI-1 renal = test system: CAKI-1 renal

Row | SMILES | GI50 (KM12 colon) | TGI (KM12 colon) | GI50 (NCI-H522 lung) | TGI (NCI-H522 lung) | GI50 (RPMI-8226 leukemia) | TGI (RPMI-8226 leukemia) | GI50 (U251 CNS) | TGI (U251 CNS) | GI50 (RXF 393 renal) | TGI (RXF 393 renal) | GI50 (COLO 205 colon) | TGI (COLO 205 colon) | GI50 (IGROV1 ovarian) | TGI (IGROV1 ovarian) | GI50 (NCI-H460 lung) | TGI (NCI-H460 lung) | GI50 (HT29 colon) | TGI (HT29 colon) | GI50 (CAKI-1 renal) | TGI (CAKI-1 renal)
1 | CN1CCN(Cn2nc(-c3cc(F)c(Cl)cc3Cl)oc2=S)CC1 | 42.7 µM | > 100 µM | 90.1 µM | > 100 µM | 22.7 µM | 50.9 µM | 35.1 µM | > 100 µM | 32.5 µM | 93.8 µM | 23.6 µM | 51.6 µM | 37.1 µM | > 100 µM | 41.2 µM | > 100 µM | 24.5 µM | 54.7 µM | 34.2 µM | > 100 µM
2 | COc1cccc2c1C(=O)c1c(O)c3c(c(O)c1C2=O)CC(O)(C(C)=O)CC3O (stereo not given) | – | 38.5 µM | – | 3.09 µM | – | 16.6 µM | – | 14.9 µM | – | 18.5 µM | – | 24.7 µM | – | 29.7 µM | – | 7.42 µM | – | 36.4 µM | – | 21.8 µM
3 | O=c1[nH]c(-c2ccc(Cl)cc2)cc2ccsc12 | – | > 100 µM | – | > 100 µM | – | 19.1 µM | – | > 100 µM | – | > 100 µM | – | > 100 µM | – | > 100 µM | – | > 100 µM | – | > 100 µM | – | 7.04 µM
